Measurements from the NIST ThermoML archive (doi:10.1021/je060271a).

Conditions: 283.16 K, Liquid, Vibrating tube method

CCCC(=O)OCC(COC(=O)CCC)(COC(=O)CCC)COC(=O)CCC [pentaerythritol tetrabutyrate]
Conditions | mass density [kg/m3]
13019 kPa | 1066.7
13044 kPa | 1066.7
13070 kPa | 1066.6
13101 kPa | 1066.6
13127 kPa | 1066.5
13208 kPa | 1066.8
13264 kPa | 1066.8
13291 kPa | 1066.8
13317 kPa | 1066.7
13343 kPa | 1066.8
13374 kPa | 1066.8
13401 kPa | 1066.8
13427 kPa | 1066.8
13460 kPa | 1066.8
13487 kPa | 1066.9
13514 kPa | 1066.9
13541 kPa | 1066.9
13574 kPa | 1066.9
13601 kPa | 1066.9
13628 kPa | 1066.9
13661 kPa | 1067
13689 kPa | 1066.9
13722 kPa | 1067.2
13750 kPa | 1067
13778 kPa | 1067
13807 kPa | 1067.1
13841 kPa | 1067
13870 kPa | 1067.1
13927 kPa | 1067.1
13962 kPa | 1067
13990 kPa | 1067.2
14025 kPa | 1067.1
14054 kPa | 1067.1
14084 kPa | 1067.2
14113 kPa | 1067.2
14149 kPa | 1067.3
14178 kPa | 1067.2
14208 kPa | 1067.2
14245 kPa | 1067.2
14275 kPa | 1067.3
14306 kPa | 1067.5
14343 kPa | 1067.3
14374 kPa | 1067.3
14405 kPa | 1067.4
14436 kPa | 1067.4
14474 kPa | 1067.4
14504 kPa | 1067.4
14536 kPa | 1067.5
14574 kPa | 1067.4
14605 kPa | 1067.5
14638 kPa | 1067.5
14677 kPa | 1067.4
14709 kPa | 1067.5
14741 kPa | 1067.6
14774 kPa | 1067.5
14814 kPa | 1067.7
14846 kPa | 1067.6
14886 kPa | 1067.6
14919 kPa | 1067.6
14952 kPa | 1067.7
14985 kPa | 1067.6
15026 kPa | 1067.6
15059 kPa | 1067.8
15094 kPa | 1067.7
15136 kPa | 1067.7
15170 kPa | 1067.7
15205 kPa | 1067.7
15246 kPa | 1067.9
15282 kPa | 1067.9
15317 kPa | 1067.9
15359 kPa | 1067.8
15394 kPa | 1067.9
15430 kPa | 1068
15473 kPa | 1067.9
15545 kPa | 1067.9
15944 kPa | 1068.3
15983 kPa | 1068.2
16022 kPa | 1068.3
16069 kPa | 1068.4
16110 kPa | 1068.4
16153 kPa | 1068.4
16192 kPa | 1068.3
16240 kPa | 1068.4
16281 kPa | 1068.3
16322 kPa | 1068.3
16363 kPa | 1068.4
16414 kPa | 1068.4
16456 kPa | 1068.5
16498 kPa | 1068.5
16547 kPa | 1068.6
16580 kPa | 1068.5
16614 kPa | 1068.6
16656 kPa | 1068.6
16691 kPa | 1068.8
16726 kPa | 1068.6
16769 kPa | 1068.7
16805 kPa | 1068.8
16839 kPa | 1068.7
16871 kPa | 1068.8
16898 kPa | 1068.8
16924 kPa | 1068.6
16956 kPa | 1068.8
16983 kPa | 1068.7
17011 kPa | 1068.9
17044 kPa | 1068.9
17074 kPa | 1068.9
17104 kPa | 1068.8
17139 kPa | 1069
17162 kPa | 1068.9
17182 kPa | 1068.8
17202 kPa | 1069
17225 kPa | 1068.9
17237 kPa | 1069
17246 kPa | 1069
17257 kPa | 1069
17266 kPa | 1069
17275 kPa | 1068.9
17284 kPa | 1068.8
17295 kPa | 1069
17304 kPa | 1068.9
17313 kPa | 1069.1
17322 kPa | 1069.1
17333 kPa | 1069.1
17342 kPa | 1069
17352 kPa | 1069
17362 kPa | 1069.1
17371 kPa | 1069
17380 kPa | 1069.1
17391 kPa | 1069.1
17400 kPa | 1069
17411 kPa | 1069
17420 kPa | 1069
17429 kPa | 1069.2
17440 kPa | 1069.1
17449 kPa | 1069.1
17458 kPa | 1069
17469 kPa | 1069.1
17478 kPa | 1069.1
17487 kPa | 1069
17498 kPa | 1069.2
17508 kPa | 1069.1
17517 kPa | 1069.1
17528 kPa | 1069.1
17538 kPa | 1069.1
17547 kPa | 1069.1
17556 kPa | 1069.2
17568 kPa | 1069.2
17577 kPa | 1069.2
17586 kPa | 1069.2
17598 kPa | 1069.1
17607 kPa | 1069.2
17618 kPa | 1069.1
17628 kPa | 1069.2
17637 kPa | 1069.2
17646 kPa | 1069.1
17658 kPa | 1069.1
17668 kPa | 1069.2
17678 kPa | 1069.3
17687 kPa | 1069.2
17698 kPa | 1069.3
17708 kPa | 1069.2
17717 kPa | 1069.2
17790 kPa | 1069.3
17800 kPa | 1069.4
17810 kPa | 1069.3
17820 kPa | 1069.2
17831 kPa | 1069.3
17841 kPa | 1069.3
17850 kPa | 1069.3
17862 kPa | 1069.3
17872 kPa | 1069.3
17882 kPa | 1069.3
17892 kPa | 1069.3
17903 kPa | 1069.4
17913 kPa | 1069.3
17922 kPa | 1069.4
17935 kPa | 1069.4
17944 kPa | 1069.4
17954 kPa | 1069.3
17966 kPa | 1069.4
17976 kPa | 1069.5
17986 kPa | 1069.4
17997 kPa | 1069.4
18007 kPa | 1069.4
18017 kPa | 1069.5
18029 kPa | 1069.4
18039 kPa | 1069.5
18049 kPa | 1069.3
18061 kPa | 1069.4
18071 kPa | 1069.4
18081 kPa | 1069.5
18157 kPa | 1069.4
18188 kPa | 1069.4
18199 kPa | 1069.5
18209 kPa | 1069.5
18219 kPa | 1069.6
18231 kPa | 1069.6
18241 kPa | 1069.4
18254 kPa | 1069.5
18286 kPa | 1069.5
18361 kPa | 1069.6
18371 kPa | 1069.7
18381 kPa | 1069.5
18394 kPa | 1069.7
18404 kPa | 1069.6
18414 kPa | 1069.7
18426 kPa | 1069.5
18436 kPa | 1069.6
18449 kPa | 1069.6
18459 kPa | 1069.6
18469 kPa | 1069.7
18480 kPa | 1069.6
18492 kPa | 1069.7
18502 kPa | 1069.7
18513 kPa | 1069.7
18525 kPa | 1069.7
18536 kPa | 1069.7
18548 kPa | 1069.7
18559 kPa | 1069.6
18569 kPa | 1069.6
18579 kPa | 1069.8
18592 kPa | 1069.7
18603 kPa | 1069.8
18614 kPa | 1069.7
18627 kPa | 1069.6
18637 kPa | 1069.7
18648 kPa | 1069.8
18658 kPa | 1069.7
18669 kPa | 1069.7
18682 kPa | 1069.8
18692 kPa | 1069.7
18703 kPa | 1069.8
18716 kPa | 1069.7
18726 kPa | 1069.8
18737 kPa | 1069.8
18750 kPa | 1069.8
18761 kPa | 1069.7
18772 kPa | 1069.7
18783 kPa | 1069.8
18794 kPa | 1069.8
18806 kPa | 1069.8
18817 kPa | 1069.9
18830 kPa | 1069.9
18841 kPa | 1069.9
18851 kPa | 1069.8
18875 kPa | 1069.9
18886 kPa | 1069.9
18910 kPa | 1069.9
18921 kPa | 1069.9
18934 kPa | 1069.9
18945 kPa | 1069.9
19002 kPa | 1069.9
19015 kPa | 1069.9
19026 kPa | 1070
19039 kPa | 1070
19050 kPa | 1070
19062 kPa | 1070
19073 kPa | 1070
19084 kPa | 1069.9
19097 kPa | 1070
19108 kPa | 1070.1
19119 kPa | 1070.1
19132 kPa | 1070.1
19154 kPa | 1069.9
19168 kPa | 1070
19179 kPa | 1070.1
19190 kPa | 1070
19204 kPa | 1070
19215 kPa | 1070.1
19226 kPa | 1070.1
19240 kPa | 1070.1
19251 kPa | 1070.1
19262 kPa | 1070.1
19274 kPa | 1070.1
19287 kPa | 1070.1
19299 kPa | 1070
19310 kPa | 1070.2
19323 kPa | 1070.1
19335 kPa | 1070.2
19408 kPa | 1070.2
19444 kPa | 1070.2
19482 kPa | 1070.2
19493 kPa | 1070.2
19507 kPa | 1070.1
19518 kPa | 1070.1
19530 kPa | 1070.2
19544 kPa | 1070.2
19556 kPa | 1070.1
19568 kPa | 1070.3
19579 kPa | 1070.3
19593 kPa | 1070.2
19605 kPa | 1070.3
